ChEMBL document CHEMBL1201862, “PubChem BioAssay data set” (2004)
Several values for one entry are separate records, joined by “and”; a condition that tells them apart may be missing. Identical values can stand only once.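 Five compound concentrations were applied to cells in 96-well plates for 48 hours; endpoints were derived by simple linear interpolation of the resulting dose-response curve. GI50 marks 50% less growth.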 Activity calls are given as the source filed them. No stated cut-off is given here; in the data, active = GI50 up to about 1.1 µM and inactive = higher.

Key:
Experiment in all cases: NCI tumour cell line growth inhibition, 48 h
BT-549 = system: BT-549
CAKI-1 = system: CAKI-1
COLO 205 = system: COLO 205
EKVX = system: EKVX
HOP-62 = system: HOP-62
M14 = system: M14
MDA-MB-231 = system: MDA-MB-231
Malme-3M = system: Malme-3M
NCI-H522 = system: NCI-H522
PC-3 = system: PC-3
SF-268 = system: SF-268
SF-295 = system: SF-295
SK-MEL-28 = system: SK-MEL-28
SK-MEL-2 = system: SK-MEL-2
SNB-19 = system: SNB-19
SNB-75 = system: SNB-75
SR = system: SR
TK-10 = system: TK-10
U-251 = system: U-251
UO-31 = system: UO-31

Row | Structure (SMILES) | GI50 (BT-549) | GI50 (CAKI-1) | GI50 (COLO 205) | GI50 (EKVX) | GI50 (HOP-62) | GI50 (M14) | GI50 (MDA-MB-231) | GI50 (Malme-3M) | GI50 (NCI-H522) | GI50 (PC-3) | GI50 (SF-268) | GI50 (SF-295) | GI50 (SK-MEL-28) | GI50 (SK-MEL-2) | GI50 (SNB-19) | GI50 (SNB-75) | GI50 (SR) | GI50 (TK-10) | GI50 (U-251) | GI50 (UO-31)
1 | CN(C)CCCc1c2ccccc2nc2ccc(Cl)cc12 | 18.6 µM (inactive) | 15.2 µM (inactive) | 14.9 µM (inactive) | 17 µM (inactive) | 14.5 µM (inactive) | 14.2 µM (inactive) | 16.6 µM (inactive) | 15.4 µM (inactive) | 14.2 µM (inactive) | 16.8 µM (inactive) | 14.6 µM (inactive) | 16.2 µM (inactive) | 18.3 µM (inactive) | 19.9 µM (inactive) | 12 µM (inactive) | 15.5 µM (inactive) | 18.5 µM (inactive) | 13.9 µM (inactive) | 12.2 µM (inactive) | –
2 | O=C(Nc1ccc(-c2cn3ccccc3n2)cc1)c1cc(Br)ccc1O | > 100 µM (inactive) | > 100 µM (inactive) | > 100 µM (inactive) | > 100 µM (inactive) | > 100 µM (inactive) | > 100 µM (inactive) | > 100 µM (inactive) | > 100 µM (inactive) | > 100 µM (inactive) | > 100 µM (inactive) | > 100 µM (inactive) | > 100 µM (inactive) | > 100 µM (inactive) | > 100 µM (inactive) | > 100 µM (inactive) | > 100 µM (inactive) | > 100 µM (inactive) | > 100 µM (inactive) | > 100 µM (inactive) | –
3 | Brc1ccc2c(c1)C1=C(CO2)Cc2ccccc2O1 | 18.2 µM (inactive) | 18.2 µM (inactive) | 17.4 µM (inactive) | 20.9 µM (inactive) | 15.6 µM (inactive) | 19.3 µM (inactive) | 16.4 µM (inactive) | 20.7 µM (inactive) | 19.7 µM (inactive) | 17.1 µM (inactive) | 19.1 µM (inactive) | 18.1 µM (inactive) | – | 17.7 µM (inactive) | – | 22 µM (inactive) | 36.2 µM (inactive) | 20.4 µM (inactive) | 19.1 µM (inactive) | 16.5 µM (inactive)
4 | O=C1C/C(=N/c2ccc(Cl)cc2)C(c2ccccc2)N1c1ccccc1 (stereo unspecified) | 5.28 µM (inactive) | 1.59 µM (inactive) | 3.66 µM (inactive) | > 100 µM (inactive) | 32.1 µM (inactive) | 5.9 µM (inactive) | 7.21 µM (inactive) | 19.5 µM (inactive) | 1.64 µM (inactive) | 3.28 µM (inactive) | 3.6 µM (inactive) | 8.61 µM (inactive) | 7.87 µM (inactive) | 2.7 µM (inactive) | 19.9 µM (inactive) | – | 5.43 µM (inactive) | 23.9 µM (inactive) | 32.7 µM (inactive) | 5.41 µM (inactive)
5 | C/C=C\C(CC(=O)O)CN1CCC2=C(C1)C(S(=O)(=O)C(F)(F)F)c1ccccc12 (stereo unspecified) | > 100 µM (inactive) | > 100 µM (inactive) | > 100 µM (inactive) | > 100 µM (inactive) | > 100 µM (inactive) | > 100 µM (inactive) | > 100 µM (inactive) | > 100 µM (inactive) | > 100 µM (inactive) | > 100 µM (inactive) | > 100 µM (inactive) | > 100 µM (inactive) | > 100 µM (inactive) | > 100 µM (inactive) | > 100 µM (inactive) | > 100 µM (inactive) | > 100 µM (inactive) | – | > 100 µM (inactive) | > 100 µM (inactive)
6 | Nc1nc(N)c2nc(CNc3ccc(C(=O)NC(CCNC(=O)c4ccccc4C(=O)O)C(=O)O)cc3)cnc2n1 (stereo unspecified) | > 100 µM (inactive) | 0.01 µM (active) | – | > 100 µM (inactive) | < 0.0205 µM (active) | 0.01 µM (active) | > 100 µM (inactive) | > 36.2 µM (inactive) | 0.0897 µM (active) | 0.01 µM (active) | 0.0101 µM (active) | 0.0718 µM (active) | 4.14 µM (inactive) | > 100 µM (inactive) | < 0.0434 µM (active) | – | 0.01 µM (active) | > 100 µM (inactive) | < 0.0254 µM (active) | 0.00802 µM (active)
7 | C=CCN(Cc1ccncc1)C(=O)C(O)(c1ccccc1)c1ccccc1 | 11.8 µM (inactive) | 31.5 µM (inactive) | 45.8 µM (inactive) | 35.9 µM (inactive) | > 100 µM (inactive) | 56 µM (inactive) | > 100 µM (inactive) | 51.9 µM (inactive) | 34.3 µM (inactive) | 37.2 µM (inactive) | > 100 µM (inactive) | 57.3 µM (inactive) | 76.4 µM (inactive) | – | 95.7 µM (inactive) | 85.9 µM (inactive) | 32.7 µM (inactive) | > 100 µM (inactive) | 76.2 µM (inactive) | 17.5 µM (inactive)
8 | N=C(c1cccs1)C1(N2CCCCC2)CCCCC1 | 24.5 µM (inactive) | 15.3 µM (inactive) | – | 20.9 µM (inactive) | 20.3 µM (inactive) | 20.3 µM (inactive) | 16.6 µM (inactive) | 14.6 µM (inactive) | 14.8 µM (inactive) | 18.7 µM (inactive) | 21.1 µM (inactive) | 18.2 µM (inactive) | – | 16.6 µM (inactive) | 17.5 µM (inactive) | – | 16.9 µM (inactive) | 17.3 µM (inactive) | 16.4 µM (inactive) | 16.1 µM (inactive)
9 | CCN(CC)c1nc(N(C)C)c2cc(OC)ccc2n1 | 56.4 µM (inactive) | 44.6 µM (inactive) | 11.7 µM (inactive) | 25.1 µM (inactive) | 92.7 µM (inactive) | 22.7 µM (inactive) | 35.5 µM (inactive) | 20.3 µM (inactive) | 14.6 µM (inactive) | 33.2 µM (inactive) | 25.8 µM (inactive) | 26.7 µM (inactive) | 28.3 µM (inactive) | 36.6 µM (inactive) | 48.6 µM (inactive) | – | 21.9 µM (inactive) | 34.4 µM (inactive) | 27.5 µM (inactive) | 19.3 µM (inactive)
10 | COc1cc(/C=C/c2nc(N)nnc2C)cc(OC)c1OC | 20.5 µM (inactive) | 6.56 µM (inactive) | 10.3 µM (inactive) | 18.1 µM (inactive) | 13 µM (inactive) | 33.3 µM (inactive) | > 84.1 µM (inactive) | 13.6 µM (inactive) | 2.43 µM (inactive) | 11.4 µM (inactive) | 21.5 µM (inactive) | 29.2 µM (inactive) | 30.1 µM (inactive) | > 37.9 µM (inactive) | 23.4 µM (inactive) | – | 7.52 µM (inactive) | > 43.8 µM (inactive) | 18.4 µM (inactive) | 4.71 µM (inactive)
11 | CC(=O)OC(/C=C/c1ccccc1)P1(=O)N(CC(C)(C)C)[C@@H]2CCCC[C@H]2N1CC(C)(C)C (stereo partly specified) | 11.5 µM (inactive) and 14.4 µM (inactive) | 12.8 µM (inactive) and 8.99 µM (inactive) | 3.69 µM (inactive) and 3.6 µM (inactive) | 5.27 µM (inactive) and 5.68 µM (inactive) | 16.2 µM (inactive) and 13.1 µM (inactive) | 5.9 µM (inactive) and 5.24 µM (inactive) | 9.68 µM (inactive) and 7.26 µM (inactive) | 12.3 µM (inactive) and 13.1 µM (inactive) | 3.76 µM (inactive) and 3.32 µM (inactive) | 3.44 µM (inactive) and 3.03 µM (inactive) | 10.9 µM (inactive) and 8.45 µM (inactive) | 5.87 µM (inactive) and 3.86 µM (inactive) | 17.7 µM (inactive) and 13.5 µM (inactive) | 11.1 µM (inactive) and 5.96 µM (inactive) | 10.5 µM (inactive) and 8.15 µM (inactive) | – | 2.92 µM (inactive) and 4.02 µM (inactive) | – | 8.81 µM (inactive) and 6.38 µM (inactive) | 7.18 µM (inactive) and 4.19 µM (inactive)
12 | O=C1c2cc3ccccc3cc2C2(c3ccc(Cl)cc3)N[C@H]3CCCC[C@@H]3N12 (stereo partly specified) | 20 µM (inactive) | 22.6 µM (inactive) | 15.3 µM (inactive) | 10.9 µM (inactive) | 6.79 µM (inactive) | 2.59 µM (inactive) | 13.3 µM (inactive) | 15.1 µM (inactive) | – | 14.9 µM (inactive) | 16.5 µM (inactive) | 13.8 µM (inactive) | 12.3 µM (inactive) | 16.4 µM (inactive) | 13.7 µM (inactive) | 16.5 µM (inactive) | 14.7 µM (inactive) | 11.7 µM (inactive) | 14.2 µM (inactive) | 18.3 µM (inactive)
13 | Cc1ccc2c(O)cc(-c3ccsc3)nc2n1 | 4.46 µM (inactive) | 6.95 µM (inactive) | 3.21 µM (inactive) | 16.9 µM (inactive) | 10.8 µM (inactive) | 3.21 µM (inactive) | 11.5 µM (inactive) | 3.66 µM (inactive) | 3.67 µM (inactive) | 4.81 µM (inactive) | 14.4 µM (inactive) | 3.44 µM (inactive) | 7.23 µM (inactive) | – | 6.59 µM (inactive) | 3.14 µM (inactive) | 0.361 µM (active) | 26.5 µM (inactive) | 4.65 µM (inactive) | 2.32 µM (inactive)
14 | O=C1NC(=O)[C@@]2(CC[C@@H](O)C2)c2ccncc21 [SESBANINE] | > 100 µM (inactive) | > 100 µM (inactive) | > 100 µM (inactive) | > 100 µM (inactive) | – | > 100 µM (inactive) | > 100 µM (inactive) | > 100 µM (inactive) | > 100 µM (inactive) | > 100 µM (inactive) | > 100 µM (inactive) | > 10 µM (inactive) | > 100 µM (inactive) | > 100 µM (inactive) | > 100 µM (inactive) | > 100 µM (inactive) | > 100 µM (inactive) | > 100 µM (inactive) | > 100 µM (inactive) | > 100 µM (inactive)
